# Tests used:
# Assay type in all cases: cell-based
# [1] = tested on: PC-3 (ATCC CRL-1435) cells; assay: Anti-proliferative activity by Cell Titer Glo assay in PC3 cells
# Experimental: (§1) Determination of Anti-Proliferative Activity of SMARCA2/4 Degrader in Cells by Cell Titer Glo® (Promega) Assay
# (§2) The prostate cancer cell lines, Vcap (ATCC #CRL-2876), LNCaP-FGC (ATCC CRL-1740), 22RV1 (ATCC CRL-2505), PC-3 (ATCC CRL-1435), DU-145 (ATCC HTB-81) and RWPE-1 (ATCC CRL-11609) were seeded in 96 well plate flat black clear bottom plates (Corning, Cat. No 3904) using respective complete media. Simultaneously cells were seeded for day 0 measurement.
# (§3) On the following day, compound 43 of the present invention was added to cells from 10 mM stocks made in DMSO (Sigma Cat no. D2650). DMSO alone was used a vehicle control. Day 0 plate was terminated on day of compound addition using 50 μl of Cell Titer Glo® reagent (Promega, Cat. no G7572). Compound was incubated for 8 days, except for 22RV1 which was incubated for 6 days. Media was replenished with fresh compound on day 4. After the compound incubation, assay was terminated using 50 μl of CellTiter Glo® reagent. CellTiter Glo® Luminescent reagent determines the number of viable cells based on quantitation of ATP present which is an indicator of cell number and metabolic activity. Luminescence readings were taken in fluorescent plate reader.
# (§4) Day 0 CTG measurement is designated as time zero (Tz), final CTG measurement in Vehicle control is designated as control growth DMSO (C) and test growth in the presence of drug at the nine concentration levels is designated as (Ti).
# (§5) Using the measurements [time zero (Tz), growth control DMSO (C) and test growth in the presence of drug at the nine concentration levels (Ti)] the percentage growth is calculated at each of the drug concentration levels. Percentage response is calculated as: [(Ti−Tz)/(C−Tz)]×100 for Concentrations for which Ti≥Tz [(Ti−Tz)/Tz]×100 for Concentrations for which Ti<Tz
# (§6) Three dose response parameters are calculated for each experimental agent. Growth inhibition of 50% (GI50) is calculated from [(Ti−Tz)/(C−Tz)]×100=50, which is the drug concentration resulting in a 50% reduction in the net luminescence increase (measured ATP) in control cells during the drug incubation.
# (§7) The LC50 (concentration of drug resulting in a 50% reduction in the measured ATP at the end of the drug treatment as compared to that at the beginning) indicating a net loss of cells following treatment is calculated from [(Ti−Tz)/Tz]×100=−50.
# (§8) Compound 43 of the present invention was analyzed against several cell lines representing normal and prostate cancer cells. The cell lines used in the present invention are harboring one or more tumor specific alterations such as presence of AR, PTEN mutations or TMPRSS2-ERG fusion which are presented below.
# [2] = tested on: RWPE-1 (ATCC CRL-11609) cells; assay: Anti-proliferative activity by Cell Titer Glo assay in RWPE normal cells
# Experimental: as §1, §2, §3, §4, §5
# (§9) Three dose response parameters are calculated for each experimental agent. […]
# (§10) Compound 43 of the present invention was analyzed against several cell lines representing normal and prostate cancer cells. […]
# [3] = tested on: Vcap (ATCC #CRL-2876) cells; assay: Anti-proliferative activity by Cell Titer Glo assay in VCap cells
# Experimental: as §1, §2, §3, §4, §5, §6, §7, §8
# [4] = tested on: LNCaP-FGC (ATCC CRL-1740) cells; assay: Anti-proliferative activity by Cell Titer Glo assay in LNCaP-FGC cells
# Experimental: as §1, §2, §3, §4, §5, §6, §7, §8
# [5] = tested on: DU-145 (ATCC HTB-81) cells; assay: Anti-proliferative activity by Cell Titer Glo assay in DU145 cells
# Experimental: as §1, §2, §3, §4, §5, §9, §10
# [6] = tested on: 22RV1 (ATCC CRL-2505) cells; assay: Anti-proliferative activity by Cell Titer Glo assay in 22RV1 cells
# Experimental: as §1, §2, §3, §4, §5, §9, §10
structure (smiles),measurement,setting,value
Cc1ncsc1-c1ccc([C@H](C)NC(=O)[C@@H]2C[C@@H](O)CN2C(=O)[C@@H](NC(=O)CN2CCN(c3cc(-c4ccccc4O)nnc3N)CC2)C(C)(C)C)cc1 [Compound 43],GI50,"[1]; Homo sapiens, PC-3, 192 h, PC3 cells, PTEN mutation +, 8 days incubation",51 nM
same,CC50,"[1]; Homo sapiens, PC-3, PC3 cells, 50% reduction in measured ATP versus day 0, 8 days incubation, read-out: LC50 (the source's name)",3410 nM
same,Inhibition of cell growth and cell killing (in words),"[1]; PC3, one tumor-specific alteration, FIG. 3B",potently inhibited with no or moderate cell killing
same,Observed cell killing,"[1]; PC3 cells, 8 days incubation",Yes
same,GI50,"[2]; Homo sapiens, RWPE-1, 192 h, RWPE (Normal) cells, normal AR, no PTEN mutation, no TMPRSS2-ERG fusion, 8 days incubation",260 nM
same,Observed cell killing,"[2]; RWPE (Normal) cells, 8 days incubation",No
same,Inhibition of cell growth and cell killing (in words),"[2]; normal cell (RWPE), FIG. 1",did not show any inhibition and cell killing
same,GI50,"[3]; Homo sapiens, 192 h, VCap cells, AR dependence +, TMPRSS2-ERG fusion +, 8 days incubation",3 nM
same,CC50,"[3]; Homo sapiens, VCap cells, 50% reduction in measured ATP versus day 0, 8 days incubation, read-out: LC50 (the source's name)",11 nM
same,Observed cell killing,"[3]; VCap cells, 8 days incubation",Yes
same,Inhibition of cell growth and cell killing (in words),"[3]; VCap, two tumor specific alterations, FIG. 4A",both growth and cell killing were potently impacted
same,GI50,"[4]; 192 h, LnCapFGC cells, AR dependence +, PTEN mutation +, 8 days incubation",5 nM
same,CC50,"[4]; LnCapFGC cells, 50% reduction in measured ATP versus day 0, 8 days incubation, read-out: LC50 (the source's name)",22 nM
same,Observed cell killing,"[4]; LnCapFGC cells, 8 days incubation",Yes
same,Inhibition of cell growth and cell killing (in words),"[4]; LnCapFGC, two tumor specific alterations, FIG. 4B",both growth and cell killing were potently impacted
same,Inhibition of cell growth and cell killing (in words),"[5]; DU145, none of the tumor specific alterations, FIG. 2",neither inhibition of cell growth nor cell killing was observed
same,Observed cell killing,"[5]; DU145 cells, 8 days incubation",No
same,GI50,"[5]; Homo sapiens, DU-145, 192 h, DU145 cells, none of the tumor-specific alterations, 8 days incubation",> 10000 nM
same,Inhibition of cell growth and cell killing (in words),"[6]; 22RV1, one tumor-specific alteration, FIG. 3A",potently inhibited with no or moderate cell killing
same,Observed cell killing,"[6]; 22RV1 cells, 6 days incubation",No
same,GI50,"[6]; Homo sapiens, 144 h, 22RV1 cells, AR dependence +, 6 days incubation",14 nM

# — patent US11865114B2, “Method for treating diseases using SMARCA2/4 degraders” (Aurigene Discovery Technologies Limited, priority 2019, dated 2024)
